In US20220017516A1, “LOX INHIBITORS” (THE INSTITUTE OF CANCER RESEARCH: ROYAL CANCER HOSPITAL, priority 2018, published 2022) one finds IC50 data, which are given here for 12 molecules.

In assay [1] the target is T1, monoamine oxidase A (MAO-A) (Homo sapiens, UniProt P21397).
T1 construct: purchased Promega V1452
T1 sequence (P21397 1-527): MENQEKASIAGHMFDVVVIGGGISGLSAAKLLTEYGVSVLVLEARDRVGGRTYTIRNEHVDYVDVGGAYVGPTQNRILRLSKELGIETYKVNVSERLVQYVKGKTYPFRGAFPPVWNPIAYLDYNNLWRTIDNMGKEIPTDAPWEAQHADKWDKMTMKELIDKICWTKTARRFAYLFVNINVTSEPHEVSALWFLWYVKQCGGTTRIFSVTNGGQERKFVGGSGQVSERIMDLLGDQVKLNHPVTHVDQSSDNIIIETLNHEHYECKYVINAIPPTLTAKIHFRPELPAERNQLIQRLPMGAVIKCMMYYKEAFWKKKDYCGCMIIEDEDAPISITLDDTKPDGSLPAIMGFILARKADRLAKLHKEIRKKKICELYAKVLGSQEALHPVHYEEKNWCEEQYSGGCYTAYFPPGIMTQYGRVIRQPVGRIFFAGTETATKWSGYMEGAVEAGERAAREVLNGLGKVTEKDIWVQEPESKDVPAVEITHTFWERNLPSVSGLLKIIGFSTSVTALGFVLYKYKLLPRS
In words: Amine oxidase activity assay (MAO-Glo), MAO-A. The class given is biochemical. How it is done:
The Promega MAO-Glo assay kit (V1402) was used to assess monoamine oxidase A (MAO-A) and monoamine oxidase B (MAO-B) activity. MAO substrate was prepared at 80 μM with the specific MAO-A/B reaction buffer. Overall, 0.5 μl test compound was added to 25 μl MAO substrate at 100, 30, 10, 3, 1, 0.3, 0.1, 0.03, 0.01 and 0.003 μM (final concentration) in a 96-well white, flat bottom plate. Overall, 25 μl of 1:520 dilution of MAO-A enzyme (Promega, V1452) or 25 μl of 1:52 dilution of MAO-B enzyme (Sigma, M7441) in specific MAO-A/B reaction buffer was added to each well (enzyme prepared at 2×final concentration) and plates were incubated for 1 h at room temperature. Finally, 50 μl per well luciferin detection reagent was added and plates were incubated for 20 min at room temperature, protected from light. Luminescence was measured with an integration time of 500 ms per well using a SpectaMax M5 plate reader and resulting IC50 values were calculated using GraphPad Prism software.
(§1) In another setting, the DAO and MAO assays were performed in 384-well plates (Greiner) and test compound was added using a Labcyte Echo™ Acoustic Handler for the same final concentrations as in the 96-well setting. Luminescence was measured with BMG LABTECH PHERAstar FS plate reader.

The next assay addresses T2, diamine oxidase (DAO) (Sus scrofa, UniProt Q9TRC7).
T2 construct: purchased Sigma
T2 sequence (Q9TRC7 25-755): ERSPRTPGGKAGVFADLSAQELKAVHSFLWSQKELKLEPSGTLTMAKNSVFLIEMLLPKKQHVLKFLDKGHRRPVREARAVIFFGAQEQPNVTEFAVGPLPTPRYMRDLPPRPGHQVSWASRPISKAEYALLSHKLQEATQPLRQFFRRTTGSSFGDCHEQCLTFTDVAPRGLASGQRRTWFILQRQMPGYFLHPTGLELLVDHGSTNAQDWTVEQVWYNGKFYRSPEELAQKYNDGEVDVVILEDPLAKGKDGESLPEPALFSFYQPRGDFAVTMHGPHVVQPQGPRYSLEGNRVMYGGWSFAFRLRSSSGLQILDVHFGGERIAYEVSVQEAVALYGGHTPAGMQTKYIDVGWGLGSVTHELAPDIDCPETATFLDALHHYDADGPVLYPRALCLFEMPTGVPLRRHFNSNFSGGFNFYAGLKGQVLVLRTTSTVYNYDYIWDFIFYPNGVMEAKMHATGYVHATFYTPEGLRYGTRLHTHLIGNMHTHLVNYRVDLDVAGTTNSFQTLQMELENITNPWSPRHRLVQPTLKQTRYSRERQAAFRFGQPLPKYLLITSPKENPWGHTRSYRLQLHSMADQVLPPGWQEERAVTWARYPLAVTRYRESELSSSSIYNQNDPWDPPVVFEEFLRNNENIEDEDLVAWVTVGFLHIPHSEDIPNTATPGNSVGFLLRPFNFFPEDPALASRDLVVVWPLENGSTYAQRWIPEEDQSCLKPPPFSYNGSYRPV
As to the kind of experiment: Diamine oxidase catalytic activity assay (ROS Glo). The class given is biochemical. On the procedure:
The diamine oxidase (DAO) catalytic activity was determined using the Promega ROS Glo assay kit (G8821); DAO was purchased from Sigma and cadaverine dihydrochloride was used as the substrate at a concentration of 97.8 mM. The concentrations of the chemical inhibitors were the same as in the MAO assays. Luminescence was measured with an integration time of 500 ms/well using a SpectaMax M5 plate reader and resulting IC50 values were calculated using GraphPad Prism software.
as §1

With `CCOc1ccc(N2C[C@H]3CN(CCS(=O)(=O)CCN)C[C@@H]2C(C)(C)C3)cc1` [Example 1, 2-((2-((1R,5S)-6-(4-ethoxyphenyl)-9,9-dimethyl-3,6-diazabicyclo[3.2.2]nonan-3-yl)ethyl)sulfonyl)ethan-1-amine], the IC50 (in assay [1]; on diamine oxidase (DAO)) was more than 100 µM each time.
`NCCS(=O)(=O)CC(=O)N1CCN(c2ccccc2)CC1` [Example 13, 2-((2-Aminoethyl)-sulfonyl)-1-(4-phenylpiperazin-1-yl)ethan-1-one]: the IC50 (in assay [1]; on diamine oxidase (DAO)) was more than 100 µM throughout.
For the molecule `CCOc1ccc(N2C[C@@H]3C[C@H]2CN3C(=O)CS(=O)(=O)CCN)cc1` [Example 8, 2-((2-aminoethyl)-sulfonyl)-1-((1S,4S)-5-(4-ethoxyphenyl)-2,5-diazabicyclo-[2.2.1]heptan-2-yl)-ethan-1-one], the IC50 (in assay [1]; against diamine oxidase (DAO)) was more than 100 µM in each case.
In the case of `CCOc1ccc(N2C[C@@H]3C[C@H]2CN3CCS(=O)(=O)CCN)cc1` [Example 2, 2-((2-((1S,4S)-5-(4-ethoxyphenyl)-2,5-diazabicyclo[2.2.1]heptan-2-yl)ethyl)sulfonyl)-ethan-1-amine], the IC50 (in assay [1]; on diamine oxidase (DAO)) was more than 100 µM throughout.
As for `CCOc1ccc(N2C[C@H]3CN(c4ccc(S(=O)(=O)CCN)cc4)C[C@@H]2C(C)(C)C3)cc1` [Example 33, 2-((4-((1R,5S)-6-(4-ethoxyphenyl)-9,9-dimethyl-3,6-diazabicyclo [3.2.2]nonan-3-yl)phenyl)sulfonyl)ethan-1-amine], the 50% inhibitory concentration (IC50) in assay [1] is more than 100 µM.
Regarding `CCOc1ccc(N2C[C@@H]3C[C@H]2CN3C(=O)C2(S(=O)(=O)CCN)CC2)cc1` [Example 42, (1-((2-Aminoethyl)sulfonyl)cyclopropyl)((1S,4S)-5-(4-ethoxyphenyl)-2,5-diazabicyclo[2.2.1]heptan-2-yl)methanone], the IC50 (in assay [1]; against diamine oxidase (DAO)) was more than 100 µM each time.
Consider `NCCS(=O)(=O)CC(=O)N1CCN(c2ncccn2)CC1` [Example 12, 2-((2-Aminoethyl)-sulfonyl)-1-(4-(pyrimidin-2-yl)-piperazin-1-yl)ethan-1-one], for which the 50% inhibitory concentration (IC50) (in assay [1]; against diamine oxidase (DAO)) was more than 100 µM each time.
On to `CCOc1ccc(N2C[C@H]3CN(C(=O)CS(=O)(=O)CCN)C[C@@H]2C(C)(C)C3)cc1` [Example 7, 2-((2-aminoethyl)sulfonyl)-1-((1S,5S)-6-(4-ethoxyphenyl)-9,9-dimethyl-3,6-diazabicyclo[3.2.2]nonan-3-yl)ethan-1-one], for which the concentration for half-maximal inhibition (IC50) (in assay [1]; against diamine oxidase (DAO)) was more than 100 µM in each case.
Molecule `CCOc1ccc(N2C[C@H]3CN(C(=O)NCCS(=O)(=O)CCN)C[C@@H]2C(C)(C)C3)cc1` [Example 38, (1S,5S)—N-(2-((2-aminoethyl)sulfonyl)ethyl)-6-(4-ethoxyphenyl)-9,9-dimethyl-3,6-diazabicyclo[3.2.2]nonane-3-carboxamide] registered an IC50 on diamine oxidase (DAO) of more than 100 µM.
In assay [1], `CCOc1ccc(N2CC3CN(CCS(=O)(=O)CCN)CC3C2)cc1` (stereo not drawn) [Example 4, 2-((2-(5-(4-ethoxyphenyl)hexahydropyrolo [3,4-c]pyrrol-2(1H)-yl)ethyl)sulfonyl)ethan-1-amine] came in with a half-inhibitory concentration (IC50) of more than 100 µM.
For the molecule `Cc1ccc(S(=O)(=O)N2C[C@H]3CN(C(=O)CS(=O)(=O)CCN)C[C@H]3C2)cc1` [Example 11, 2-((2-aminoethyl)-sulfonyl)-1-(cis-5-tosylhexahydro-pyrrolo[3,4-c]pyrrol-2(1H)-yl)ethan-1-one], the IC50 (in assay [1]; at diamine oxidase (DAO)) was more than 100 µM each time.
Take `CCOC(=O)CCC(C(=O)N1C[C@@H]2C[C@H]1CN2c1ccc(OCC)cc1)S(=O)(=O)CCN` (stereo partly drawn) [Example 41, ethyl 4-((2-aminoethyl)sulfonyl)-5-((1S,4S)-5-(4-ethoxyphenyl)-2,5-diazabicyclo[2.2.1]heptan-2-yl)-5-oxopentanoate]: the concentration for half-maximal inhibition (IC50) (in assay [1]; against diamine oxidase (DAO)) was more than 100 µM throughout.
